Values of other authors in publication PMC6311893, “Computational prediction of plasma protein binding of cyclic peptides from small molecule experimental data using sparse modeling techniques” (BMC Bioinformatics, 2018).

Tested on: plasma protein
Settings: fraction bound to plasma protein; small molecule dataset, sheet 1-SM (Set Dte = test, Dtr = training); ref Ingle et al.; cited from earlier work

Compound	PPB (fb)
CC1(C)SC2C(NC(=O)c3cccc4ccccc34)C(=O)N2C1C(=O)O (stereo not shown) [penicillin64]	0.86
CC1OC2(CS1)CN1CCC2CC1 (stereo not shown) [cevimeline]	0.15
CC(=O)Nc1c(I)c(NC(C)=O)c(I)c(C(=O)O)c1I [Diatrizoic Acid (Amidotrizoate)]	0.02
O=C(O)c1cn(-c2cccc(C(F)(F)F)c2)c2cc(N3CCNCC3)c(F)cc2c1=O [3b(m-CF3)]	0.62
NC(Cc1cc(I)c(Oc2cc(I)c(O)c(I)c2)c(I)c1)C(=O)O (stereo not shown) [thyroxine]	0.99
CC(C)(C)NCC(O)COc1cccc2c1CCC(=O)N2 (stereo not shown) [carteolol]	0.15
NS(=O)(=O)Cc1noc2ccccc12 [zonisamide]	0.4
C[C@H]1O[C@H](O[C@H]2[C@H](O)[C@@H](O)[C@@H](O[C@H]3[C@H](O)[C@@H](O)C(O)O[C@@H]3CO)O[C@@H]2CO)[C@H](O)[C@@H](O)[C@@H]1N[C@H]1C=C(CO)[C@@H](O)[C@H](O)[C@H]1O (stereo partly shown) [acarbose]	0.15
CC(C)Nc1cccnc1N1CCN(C(=O)c2cc3cc(NS(C)(=O)=O)ccc3[nH]2)CC1 [delavirdine]	0.98
COc1ccc(CCN2CCC(Nc3nc4ccccc4n3Cc3ccc(F)cc3)CC2)cc1 [astemizole]	0.97
CC(C)(C)NCC(O)COc1cccc2c1SCCC2 (stereo not shown) [tertatolol]	0.95
CN1C[C@H](C(=O)N[C@]2(C)O[C@@]3(O)[C@@H]4CCCN4C(=O)[C@H](Cc4ccccc4)N3C2=O)C[C@@H]2c3cccc4[nH]cc(c34)C[C@H]21 [dihydroergotamine]	0.93
C=CCNc1nc(NCC=C)nc(N2CCN(C(c3ccc(F)cc3)c3ccc(F)cc3)CC2)n1 [almitrine]	0.99
CCCN(CCC)S(=O)(=O)c1ccc(C(=O)O)cc1 [Probenecid]	0.88
CN1CCN(C(c2ccccc2)c2ccc(Cl)cc2)CC1 (stereo not shown) [chlorcyclizine]	0.87
CC1(C)O[C@@H]2C[C@H]3[C@@H]4C[C@H](F)C5=CC(=O)C=C[C@]5(C)[C@H]4[C@@H](O)C[C@]3(C)[C@]2(C(=O)CO)O1 [flunisolide]	0.5
O=C(O)c1cn(-c2ccc([N+](=O)[O-])cc2)c2cc(N3CCNCC3)c(F)cc2c1=O [7c(p-NO2)]	0.3
C[C@]12CCC(=O)C=C1C=C[C@@H]1[C@@H]2CC[C@@]2(C)[C@H]1CC[C@@]2(O)CCC(=O)O [canrenoate]	0.94

Same assay, conditions: fraction bound to plasma protein; small molecule dataset, sheet 1-SM, Set Dtr; ref Ingle et al.; cited from earlier work

Compound	PPB (fb)
C[C@H]1O[C@@H](n2cc(F)c(=O)[nH]c2=O)[C@H](O)[C@@H]1O [Doxifluridine]	0.39
CO/N=C(\C(=O)N[C@@H]1C(=O)N2C(C(=O)O)=CCS[C@H]12)c1csc(N)n1 [Ceftizoxime]	0.28
CCC(=O)O[C@]1(C(=O)SCF)[C@H](C)C[C@H]2[C@@H]3C[C@H](F)C4=CC(=O)C=C[C@]4(C)[C@@]3(F)[C@@H](O)C[C@@]21C [Fluticasone propionate]	0.89
CCCCNc1cc(C(=O)O)cc(S(N)(=O)=O)c1Oc1ccccc1 [Bumetanide]	0.96
CNC(=C[N+](=O)[O-])NCCSCc1csc(CN(C)C)n1 [Nizatidine]	0.32
O=C(CCCN1CCC(O)(c2ccc(Cl)cc2)CC1)c1ccc(F)cc1 [Haloperidol]	0.92
N[C@@H](C(=O)N[C@@H]1C(=O)N2C(C(=O)O)=C(CSc3c[nH]nn3)CS[C@H]12)c1ccc(O)cc1 [Cefatrizine]	0.59
O=C(N[C@H](CO)[C@H](O)c1ccc([N+](=O)[O-])cc1)C(Cl)Cl [Chloramphenicol]	0.61
COc1cccc2c1C(=O)c1c(O)c3c(c(O)c1C2=O)C[C@@](O)(C(=O)CO)C[C@@H]3O[C@H]1C[C@H](N)[C@@H](O)[C@H](C)O1 [Epirubicin]	0.75
O=C(c1ccc(F)cc1)C1CCN(CCn2c(=O)[nH]c3ccccc3c2=O)CC1 [Ketanserin]	0.95
CN1CCN(C2=Nc3cc(Cl)ccc3Nc3ccccc32)CC1 [Clozapine]	0.95
CC(CCc1ccccc1)NCC(O)c1ccc(O)c(C(N)=O)c1 (stereo not shown) [Labetalol]	0.5
O=c1[nH]cnc2c1ncn2[C@H]1CC[C@@H](CO)O1 [Didanosine]	0.04

Same assay, conditions: fraction bound to plasma protein; small molecule dataset, sheet 1-SM; ref Ingle et al.; cited from earlier work

Compound	PPB (fb)
CC(Oc1c(Cl)cccc1Cl)C1=NCCN1 (stereo not shown) [lofexidine]	0.6
CCCCOCC(=O)NC1C(=O)N2C1SC(C)(C)C2C(=O)O (stereo not shown) [penicillin7]	0.59
CSc1ccc(/C=C2/C(C)=C(CC(=O)O)c3cc(F)ccc32)cc1 [Sulindac sulfide]	0.94
CNS(=O)(=O)Cc1ccc2[nH]cc(CCN(C)C)c2c1 [Sumatriptan]	0.17
CC(C(=O)O)c1ccc(CC2CCCC2=O)cc1 (stereo not shown) [loxoprofen]	0.96
CN1CC(=O)N2[C@H](c3ccc4c(c3)OCO4)c3[nH]c4ccccc4c3C[C@@H]2C1=O [tadalafil]	0.94
OCCOCCN1CCN(C2=Nc3ccccc3Sc3ccccc32)CC1 [quetiapine]	0.83
O=C1[C@@H]2[C@H]3CC[C@H](C3)[C@@H]2C(=O)N1CCCCN1CCN(c2ncccn2)CC1 [tandospirone]	0.3
COCC(=O)NC1C(=O)N2C1SC(C)(C)C2C(=O)O (stereo not shown) [penicillin5]	0.07
C[C@@H]1CN(c2c(F)c(N)c3c(=O)c(C(=O)O)cn(C4CC4)c3c2F)C[C@H](C)N1 [Sparfloxacin]	0.45
Cc1ccccc1C(OCCN(C)C)c1ccccc1 (stereo not shown) [orphenadrine]	0.95
CN(C)S(=O)(=O)C1=CC2C(C=C1)Sc1ccccc1N2CCCN1CCC(CCO)CC1 (stereo not shown) [Pipotiazine]	0.45
Cc1nnc(NS(=O)(=O)c2ccc(N)cc2)s1 [sulfamethizole]	0.9
Cc1ccc2ccccc2c1C(=O)NC1C(=O)N2C1SC(C)(C)C2C(=O)O (stereo not shown) [penicillin66]	0.82
N[C@@H](CC(=O)N1CCn2c(nnc2C(F)(F)F)C1)Cc1cc(F)c(F)cc1F [Sitagliptin]	0.38
COC(C(=O)NC1C(=O)N2C1SC(C)(C)C2C(=O)O)c1cccc(Cl)c1 (stereo not shown) [penicillin40]	0.83
S=P(N1CC1)(N1CC1)N1CC1 [Thiotepa]	0.1
CO[C@H]1C[C@@H]2CC[C@@H](C)[C@@](O)(O2)C(=O)C(=O)N2CCCC[C@H]2C(=O)O[C@H]([C@H](C)C[C@@H]2CC[C@@H](OCCO)[C@H](OC)C2)CC(=O)[C@H](C)/C=C(\C)[C@@H](O)[C@@H](OC)C(=O)[C@H](C)C[C@H](C)/C=C/C=C/C=C/1C [everolimus]	0.74
CC(Oc1ccc(Cl)c(Cl)c1)C(=O)NC1C(=O)N2C1SC(C)(C)C2C(=O)O (stereo not shown) [penicillin58]	0.97
COC(C(=O)NC1C(=O)N2C1SC(C)(C)C2C(=O)O)c1cccc(Br)c1 (stereo not shown) [penicillin39]	0.88

Same assay, conditions: plasma; cited from earlier work

Compound	PPB (fb)
Nisoldipine	1
lacidipine	0.95
CN1C(=O)CN=C(c2ccccc2F)c2cc([N+](=O)[O-])ccc21 [Flunitrazepam]	0.81
CCC1(C2=CCCCC2)C(=O)NC(=O)NC1=O [cyclobarbital]	0.7
CN1C(=O)C(O)N=C(c2ccccc2Cl)c2cc(Cl)ccc21 (stereo not shown) [Lormetazepam]	0.86
COc1ccc(Cc2nccc3cc(OC)c(OC)cc23)cc1OC [Papaverine]	0.9
Pyridostigmine	0
